Experimental findings from ChEMBL document CHEMBL2203227, “Macrocycles are great cycles: applications, opportunities, and challenges of synthetic macrocycles in drug discovery” (J Med Chem, 2011) are described below.

*1 amine or outer side, *2 acyl side, *3 side chain or, on linkers, in order; H or OH if unused. Where a SMILES comes first, the peptide text is derived from it. [ ]: non-standard residue; d: D form. LeuΨ(S-CHOHCH2)Ala = CC(C)C[C@H](N[*:1])[C@@H](O)C[C@@H](C)C(=O)[*:2] Some results are limits rather than exact numbers.

Series [1] is described as follows: Inhibition of HCV 3a NS3 protease. Further details: species or system Hepatitis C virus subtype 3a.
Series [2] concerns Hepatitis C virus. Briefly: Inhibition of HCV 1b NS3 protease. Details: species or system Hepatitis C virus subtype 1b.
Series [3] concerns Hepatitis C virus. In words: microbe, parasite or virus in culture.
Description: Antiviral activity against HCV by cell based replicon assay
Series [4] can be described thus: Half life in rat. It counts as ADME, organism-based. As to conditions: in vivo.
Series [5] is described as follows: Half life in dog. In kind it is ADME, organism-based, Canis lupus familiaris. As to conditions: in vivo.
A short description of series [6]: Oral bioavailability in dog. In kind it is ADME, organism-based, Canis lupus familiaris. As to conditions: in vivo.
Series [7] in a line: Inhibition of HCV 1a NS3 protease. Details: species or system Hepatitis C virus subtype 1a.
A short description of series [8]: in vivo. As to conditions: rat.
Series [9] in a line: in vivo. The conditions noted are these: rat, liver/plasma.
Description: Ratio of drug level in liver to plasma of rat
Series [10] relates to Hepatitis C virus. Briefly: microbe, parasite or virus in culture. As to conditions: genotype 1b.
Description: Antiviral activity against HCV1b by cell based replicon assay
Series [11] has as its system Hepatitis C virus. Briefly: microbe, parasite or virus in culture. As to conditions: subtype 1a.
Description: Antiviral activity against HCV1a by cell based replicon assay
In series [12] the target is T1, Beta-secretase 1 (Homo sapiens, UniProt P56817). In words: Inhibition of BACE1 by cell based assay.
T1 sequence (P56817 whole entry): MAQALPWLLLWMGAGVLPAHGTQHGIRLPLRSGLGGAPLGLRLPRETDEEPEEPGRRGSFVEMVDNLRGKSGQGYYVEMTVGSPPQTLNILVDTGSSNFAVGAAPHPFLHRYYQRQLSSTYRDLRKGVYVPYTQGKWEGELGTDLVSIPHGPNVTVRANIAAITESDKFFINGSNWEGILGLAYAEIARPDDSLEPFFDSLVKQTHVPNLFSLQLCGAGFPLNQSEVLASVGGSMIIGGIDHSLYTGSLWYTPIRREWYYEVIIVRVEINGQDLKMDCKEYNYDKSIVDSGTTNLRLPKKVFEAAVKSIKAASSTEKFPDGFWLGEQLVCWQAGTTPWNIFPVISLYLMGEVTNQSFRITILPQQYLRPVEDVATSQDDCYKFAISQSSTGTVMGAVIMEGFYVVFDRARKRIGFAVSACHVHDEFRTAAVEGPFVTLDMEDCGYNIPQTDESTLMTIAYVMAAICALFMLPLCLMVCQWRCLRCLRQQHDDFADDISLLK
Series [13] in a line: Oral bioavailability in rhesus monkey. In kind it is ADME, organism-based, Macaca mulatta. The conditions noted are these: in vivo.
The target of series [14] is T2, Renin (Homo sapiens, UniProt P00797).
T2 sequence (P00797 whole entry): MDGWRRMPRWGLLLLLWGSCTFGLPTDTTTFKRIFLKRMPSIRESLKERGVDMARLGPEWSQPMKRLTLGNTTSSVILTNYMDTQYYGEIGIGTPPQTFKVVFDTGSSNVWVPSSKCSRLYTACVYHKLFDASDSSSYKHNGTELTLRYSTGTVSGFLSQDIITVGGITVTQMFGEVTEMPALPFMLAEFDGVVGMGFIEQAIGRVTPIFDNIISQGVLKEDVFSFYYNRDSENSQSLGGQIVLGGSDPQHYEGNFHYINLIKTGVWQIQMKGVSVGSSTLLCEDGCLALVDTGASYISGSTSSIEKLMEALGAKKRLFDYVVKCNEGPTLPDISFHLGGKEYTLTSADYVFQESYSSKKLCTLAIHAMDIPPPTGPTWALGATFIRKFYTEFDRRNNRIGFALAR
In words: Inhibition of renin.

A short description of series [15]: Reversible inhibition of HCV NS3 protease. Further details: species or system Hepacivirus hominis.
Series [16] is described as follows: Protein binding in human plasma. The conditions noted are these: read-out: PPB (converted). It counts as ADME, cell-free.
Series [17] can be described thus: Half life in monkey. In kind it is ADME, organism-based, Macaca mulatta. The conditions noted are these: rhesus monkey, in vivo.
The nature of series [18]: Oral bioavailability in monkey. It counts as ADME, organism-based, Macaca mulatta. As to conditions: rhesus monkey, in vivo.
Series [19] in a line: Oral bioavailability in rat. In kind it is ADME, organism-based. As to conditions: in vivo.
The target of series [20] is High affinity nerve growth factor receptor (Homo sapiens, UniProt P04629). In words: Inhibition of TrkA assessed as inhibition of mAb5C3 binding.
Chain of High affinity nerve growth factor receptor (P04629 whole entry, the tested form may be a part): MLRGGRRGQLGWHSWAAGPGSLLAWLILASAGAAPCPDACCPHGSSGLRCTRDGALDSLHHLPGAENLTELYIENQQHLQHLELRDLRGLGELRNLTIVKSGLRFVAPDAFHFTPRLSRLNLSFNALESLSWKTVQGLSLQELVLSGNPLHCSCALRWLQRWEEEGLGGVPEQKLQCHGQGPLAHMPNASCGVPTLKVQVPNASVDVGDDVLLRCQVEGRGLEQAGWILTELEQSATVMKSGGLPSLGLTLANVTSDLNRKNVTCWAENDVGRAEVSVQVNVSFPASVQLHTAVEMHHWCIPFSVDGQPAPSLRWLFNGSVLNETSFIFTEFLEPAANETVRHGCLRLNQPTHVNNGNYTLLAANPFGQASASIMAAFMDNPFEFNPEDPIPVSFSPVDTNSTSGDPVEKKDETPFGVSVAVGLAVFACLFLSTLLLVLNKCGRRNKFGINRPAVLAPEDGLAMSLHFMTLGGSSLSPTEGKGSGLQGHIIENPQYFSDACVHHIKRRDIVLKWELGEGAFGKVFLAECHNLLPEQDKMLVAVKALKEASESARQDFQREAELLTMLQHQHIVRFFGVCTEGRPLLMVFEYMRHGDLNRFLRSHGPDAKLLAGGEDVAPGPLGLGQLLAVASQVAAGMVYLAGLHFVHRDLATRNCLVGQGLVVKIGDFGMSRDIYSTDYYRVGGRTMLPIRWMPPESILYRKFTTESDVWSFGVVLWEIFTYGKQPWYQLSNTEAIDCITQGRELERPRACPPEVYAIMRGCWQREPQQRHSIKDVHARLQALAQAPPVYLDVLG
Series [21] has as its target T3, Growth factor receptor-bound protein 2 (Homo sapiens, UniProt P62993). In words: Inhibition of SH2 domain of GRB2 in human MDA-MB-453 cells. It counts as cell-based.
The target in series [22] is T3, Growth factor receptor-bound protein 2. In words: Inhibition of SH2 domain of GRB2 in human MDA-MB-231 cells. In kind it is cell-based.
The target is the same in series [23]. Briefly: Inhibition of SH2 domain of GRB2 by whole cell based assay.
In series [24] the target is T4, Growth hormone secretagogue receptor type 1 (Homo sapiens, UniProt Q92847). Briefly: Antagonist activity at ghrelin receptor assessed as inhibition of ghrelin-induced Ca2+ release by cell based assay. In kind it is functional.
T4 sequence (Q92847 whole entry): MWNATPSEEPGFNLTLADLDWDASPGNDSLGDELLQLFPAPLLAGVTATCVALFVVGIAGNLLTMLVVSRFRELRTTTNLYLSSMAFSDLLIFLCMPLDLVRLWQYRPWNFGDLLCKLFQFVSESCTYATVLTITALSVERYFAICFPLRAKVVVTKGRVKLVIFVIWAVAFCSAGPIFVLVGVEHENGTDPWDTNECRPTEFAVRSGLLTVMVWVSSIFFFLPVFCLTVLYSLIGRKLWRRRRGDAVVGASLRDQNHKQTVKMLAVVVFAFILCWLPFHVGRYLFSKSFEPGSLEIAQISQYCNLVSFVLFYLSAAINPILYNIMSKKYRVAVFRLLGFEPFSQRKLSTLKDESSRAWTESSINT
Series [25] concerns the target T4, Growth hormone secretagogue receptor type 1. Briefly: Agonist activity at ghrelin receptor. It counts as functional.
Series [26] shares this target. In words: Agonist activity at ghrelin receptor by cell based assay. In kind it is functional.
The target of series [27] is High affinity choline transporter 1 (Homo sapiens, UniProt Q9GZV3). Briefly: Antagonist activity at CHT1. In kind it is functional.
Chain of High affinity choline transporter 1 (Q9GZV3 whole entry): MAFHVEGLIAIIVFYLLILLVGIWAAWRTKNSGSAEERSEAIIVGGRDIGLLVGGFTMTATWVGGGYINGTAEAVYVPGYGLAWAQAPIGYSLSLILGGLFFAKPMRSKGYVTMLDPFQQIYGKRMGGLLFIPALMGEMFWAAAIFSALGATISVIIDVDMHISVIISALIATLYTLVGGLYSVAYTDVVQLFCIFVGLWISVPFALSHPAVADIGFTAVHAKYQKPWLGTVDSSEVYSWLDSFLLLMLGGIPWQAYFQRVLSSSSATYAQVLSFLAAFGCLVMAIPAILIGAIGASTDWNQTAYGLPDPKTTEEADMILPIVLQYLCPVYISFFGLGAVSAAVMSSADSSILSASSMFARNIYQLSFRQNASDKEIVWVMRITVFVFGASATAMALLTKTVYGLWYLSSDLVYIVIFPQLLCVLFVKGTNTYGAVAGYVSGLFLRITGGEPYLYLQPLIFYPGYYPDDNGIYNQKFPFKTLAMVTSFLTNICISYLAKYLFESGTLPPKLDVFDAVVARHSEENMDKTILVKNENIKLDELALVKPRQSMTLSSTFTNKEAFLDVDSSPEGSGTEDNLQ
Series [28] is described as follows: Antagonist activity at GABA-gated chloride channel. In kind it is functional.
In series [29] the target is Adenosine receptor A3 (Homo sapiens, UniProt P0DMS8). In words: Antagonist activity at adenosine A3 receptor. In kind it is functional.
Chain of Adenosine receptor A3 (P0DMS8 whole entry): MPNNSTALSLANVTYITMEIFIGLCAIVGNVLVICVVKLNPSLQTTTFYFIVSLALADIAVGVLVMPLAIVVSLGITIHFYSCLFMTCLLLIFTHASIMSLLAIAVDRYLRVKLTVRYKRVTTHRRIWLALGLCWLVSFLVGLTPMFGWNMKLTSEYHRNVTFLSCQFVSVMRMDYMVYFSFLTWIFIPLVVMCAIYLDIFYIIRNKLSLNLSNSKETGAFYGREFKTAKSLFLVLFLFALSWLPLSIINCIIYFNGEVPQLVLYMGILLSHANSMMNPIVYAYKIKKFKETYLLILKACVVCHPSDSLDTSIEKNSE
In series [30] the target is D(1A) dopamine receptor (Homo sapiens, UniProt P21728). Briefly: Antagonist activity at dopamine D1 receptor. It counts as functional.
Chain of D(1A) dopamine receptor (P21728 whole entry): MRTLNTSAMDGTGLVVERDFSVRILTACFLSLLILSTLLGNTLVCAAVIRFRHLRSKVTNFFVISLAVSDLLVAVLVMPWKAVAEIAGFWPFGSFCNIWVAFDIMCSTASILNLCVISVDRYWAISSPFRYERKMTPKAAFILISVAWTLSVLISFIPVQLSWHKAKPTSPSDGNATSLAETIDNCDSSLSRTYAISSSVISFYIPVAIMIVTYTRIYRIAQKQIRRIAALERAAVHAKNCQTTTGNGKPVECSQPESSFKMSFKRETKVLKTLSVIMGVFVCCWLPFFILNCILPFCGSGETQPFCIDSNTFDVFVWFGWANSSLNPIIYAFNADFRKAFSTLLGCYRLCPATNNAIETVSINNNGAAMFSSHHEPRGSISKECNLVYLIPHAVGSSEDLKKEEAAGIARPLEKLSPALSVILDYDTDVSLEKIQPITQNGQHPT
Series [31] concerns the target T1, Beta-secretase 1. In words: Inhibition of BACE1.
A short description of series [32]: Selectivity ratio of human elastase to HCV NS3 protease.
Series [33] has as its target C-X-C chemokine receptor type 4 (Homo sapiens, UniProt P61073). In words: Antagonist activity at CXCR4. It counts as functional.
Series [34] in a line: Ratio of drug level in liver to plasma of monkey. As to conditions: rhesus monkey. In kind it is ADME, tissue-based, Macaca mulatta.
Series [35] is described as follows: Inhibition of HCV6 NS3 protease. Further details: species or system Hepatitis C virus genotype 6.
Series [36] in a line: Inhibition of HCV4 NS3 protease. Further details: species or system Hepatitis C virus genotype 4.
Series [37] is described as follows: Inhibition of HCV5 NS3 protease. Details: species or system Hepatitis C virus genotype 5.
Series [38] can be described thus: Inhibition of HCV 2b NS3 protease. Details: species or system Hepatitis C virus subtype 2b.
The target of series [39] is Cyclin-dependent kinase 1 (Homo sapiens, UniProt P06493). Briefly: Inhibition of CDK1.
Chain of Cyclin-dependent kinase 1 (P06493 whole entry): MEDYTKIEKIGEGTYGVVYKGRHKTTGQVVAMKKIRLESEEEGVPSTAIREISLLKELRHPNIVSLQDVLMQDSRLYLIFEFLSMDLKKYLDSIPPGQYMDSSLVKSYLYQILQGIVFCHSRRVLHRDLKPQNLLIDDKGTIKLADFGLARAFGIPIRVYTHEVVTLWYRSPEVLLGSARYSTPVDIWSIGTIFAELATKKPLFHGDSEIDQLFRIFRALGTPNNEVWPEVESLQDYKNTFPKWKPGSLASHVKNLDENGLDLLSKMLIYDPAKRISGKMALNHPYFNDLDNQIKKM
For series [40], the target named is Cyclin-dependent kinase 2 (Homo sapiens, UniProt P24941). In words: Inhibition of CDK2.
The subject of series [41] is MCF7. Briefly: cells. The conditions noted are these: Homo sapiens.
Description: Antiproliferative activity against human MCF7 cells

T3 sequence (P62993 whole entry, the tested form may be a part): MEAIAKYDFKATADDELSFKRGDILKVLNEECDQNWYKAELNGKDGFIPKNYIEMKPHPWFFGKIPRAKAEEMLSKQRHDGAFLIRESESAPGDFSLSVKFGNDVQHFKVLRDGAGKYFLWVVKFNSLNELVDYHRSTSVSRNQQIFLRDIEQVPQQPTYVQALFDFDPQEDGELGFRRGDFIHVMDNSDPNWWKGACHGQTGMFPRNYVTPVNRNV
Chain of C-X-C chemokine receptor type 4 (P61073 whole entry): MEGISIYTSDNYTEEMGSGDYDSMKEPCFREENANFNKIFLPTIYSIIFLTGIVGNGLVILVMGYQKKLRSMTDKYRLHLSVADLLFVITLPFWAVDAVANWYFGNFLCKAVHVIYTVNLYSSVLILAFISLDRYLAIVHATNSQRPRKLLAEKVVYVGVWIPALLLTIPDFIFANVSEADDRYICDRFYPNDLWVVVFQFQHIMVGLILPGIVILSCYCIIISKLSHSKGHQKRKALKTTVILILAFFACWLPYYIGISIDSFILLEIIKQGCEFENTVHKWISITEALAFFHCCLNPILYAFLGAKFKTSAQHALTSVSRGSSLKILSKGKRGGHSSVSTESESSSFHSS

As for `COc1cc2nc(-c3ccccc3)cc3c2cc1/C=C/CC(C)(C)COC(=O)N[C@H]1CCCCC/C=C\[C@@H]2C[C@@]2(C(=O)NS(=O)(=O)C2CC2)NC(=O)[C@@H]2C[C@H](CN2C1=O)O3`, the Ki in series [1] was found to be 1.2 nM; in series [2] it was 0.029 nM. A half-maximal response in [3] (EC50) required 2 nM.
As to `COc1ccc2c(O[C@@H]3C[C@H]4C(=O)N[C@]5(C(=O)NS(=O)(=O)C6CC6)C[C@H]5/C=C\CCCCN(C)C(=O)[C@@H]4C3)cc(-c3nc(C(C)C)cs3)nc2c1C`, the half-life is 4 h in [4] and 5.1 h in [5]. The same molecule registered a bioavailability in series [6] of 100%. In addition, affinity in [7] was put at a Ki of 0.5 nM. In addition, in series [8], the clearance turned out to be 2.28 L/h/kg. In [9], this molecule registered a Kp greater than 35. Also, the EC50 in series [10] turned out to be 25 nM; in [11] it was 28 nM.
As to `CC(C)[C@H](NC(=O)OC(C)(C)C)C(=O)N[C@@H](C)C(=O)N[C@@H](Cc1ccccc1)[C@@H](O)C[C@@H](C)C(=O)N[C@H](C(=O)NCc1ccncc1)C(C)C`, in series [12], 2100 nM corresponded to half-maximal inhibition (IC50).
In series [13], `O=C1CCC[C@H](CN2CCOCC2)OC(=O)[C@H](O)[C@H](CC2CCCCC2)NC(=O)[C@@H](NC(=O)[C@H](Cc2ccccc2)N[C@@H]2CN3CCC2CC3)CO1` came in with a bioavailability of 1%. Inhibition in series [14] was half-maximal at 1.3 nM (IC50).
`CN(C)C(=O)[C@@H](NC(=O)CNC(=O)C(=O)[C@@H]1CCCCCCCCCC[C@H](NC(=O)NC(C)(C)C)C(=O)N2C[C@H]3[C@@H]([C@H]2C(=O)N1)C3(C)C)c1ccccc1` had an inhibition constant Ki in series [15] of 6 nM.
Regarding `COc1ccc2c(O[C@@H]3C[C@H]4C(=O)N[C@]5(C(=O)O)C[C@H]5/C=C\CCCCC[C@H](NC(=O)OC5CCCC5)C(=O)N4C3)cc(-c3csc(NC(C)C)n3)nc2c1`, the fraction unbound in series [16] is 0.009. For the same molecule, the half-life is 7 h in series [17], 0.8 h in series [4] and 4.2 h in [5]. For the same molecule, the bioavailability in series [18] was 7%; in [6] it was 36%; in series [19], 13%. Also, in [7], the affinity, expressed as Ki, was 0.3 nM.
For `NCCCC[C@@H]1NC(=O)c2cc([N+](=O)[O-])ccc2NCc2ccc(C(N)=O)cc2NC(=O)[C@H](CO)NC1=O`, the IC50 in [20] turned out to be 4000 nM.
As to `Cc1ccc2c(ccn2C[C@@H]2C/C=C/[C@H](c3ccc(CP(=O)(O)O)cc3)[C@H](CC(=O)O)C(=O)NC3(CCCCC3)C(=O)N[C@@H](CC(N)=O)C(=O)NC2)c1`, the concentration for half-maximal inhibition (IC50) is 630 nM in series [21], greater than 10000 nM in series [22] and no more than 10 nM in [23].
As for `CC[C@H](C)[C@@H]1NCCOc2ccccc2CCCNC(=O)[C@@H](Cc2ccccc2)NC(=O)[C@H](CO)N(C)C1=O`, the concentration for half-maximal inhibition (IC50) in [24] stood at 500 nM. In series [25], this molecule had a Ki of 100 nM.
For the molecule `CC[C@H](C)[C@@H]1NCCOc2ccccc2CCCNC(=O)[C@@H](Cc2ccc(Cl)cc2)NC(=O)[C@@H](C)N(C)C1=O`, it took 14 nM to reach a half-maximal effect in series [26] (EC50). The molecule also yielded an inhibition constant (Ki) in series [25] of 1 nM.
Take `CCC[C@H](NC(=O)[C@@H]1[C@H]2CCC[C@H]2CN1C(=O)[C@@H](NC(=O)[C@@H](NC(=O)c1cnccn1)C1CCCCC1)C(C)(C)C)C(=O)C(=O)NC1CC1`: in series [15], the affinity corresponds to a Ki of 7 nM. Besides, 354 nM corresponded to half-maximal inhibition in series [3] (IC50).
For `Cn1c2cnc1OCC/C=C\CCCCOc1ccccc1-2`, the IC50 in series [27] was found to be 3200 nM; in series [28], 7200 nM; in series [29], 850 nM; in [30], 1100 nM.
`CC(C)C[C@H](NC(=O)[C@H](CC(N)=O)NC(=O)[C@H](C)NC(=O)[C@@H](N)CCC(=O)O)[C@@H](O)C[C@@H](C)C(=O)N[C@@H](C)C(=O)N[C@@H](CCC(=O)O)C(=O)N[C@@H](Cc1ccccc1)C(=O)O` (H-EAN[LeuΨ(S-CHOHCH2)Ala]AEF-OH): half-maximal inhibition in series [31] (IC50) required 1.6 nM.
For `CC(C)(C)NC(=O)N[C@H](C(=O)N1C[C@H]2[C@@H]([C@H]1C(=O)NC(CC1CCC1)C(=O)C(N)=O)C2(C)C)C(C)(C)C` (stereo partly drawn), the Selectivity ratio in series [32] was 2800.
`c1ccc(CNCc2ccc(CN3CCCNCCNCCCNCC3)cc2)nc1`: the concentration for half-maximal inhibition (IC50) in series [33] came to 12.4 nM.
Regarding `CC(C)(C)OC(=O)N[C@H]1CCCCC/C=C\[C@@H]2C[C@@]2(C(=O)NS(=O)(=O)C2CC2)NC(=O)[C@@H]2C[C@@H](OC(=O)N3Cc4cccc(F)c4C3)CN2C1=O` [DANOPREVIR], the partition ratio (Kp) worked out at 100 in series [34] and 10 in [9]. The IC50 in [35], in [36], in [37], in series [38], in series [1] and in series [7] was 0.2 nM throughout. The same molecule came in with an IC50 in series [2] (Hepatitis C virus) of 0.2 nM. Besides, in series [3], a half-maximal effect (EC50) was put at 1.8 nM.
In the case of `N#CCNc1nc(Nc2ccccc2)ncc1Br`, the IC50 turned out to be 100 nM in [39], 100 nM in series [40] and 4000 nM in [41].
